Measurements: US9796777B2, “Methods of treating malignant tumors” (Canimguide Therapeutics AB, priority 2007, dated 2017)

Columns and labels:
[1] = target: T1, β2-integrin LFA-1 (CD11a) (Homo sapiens, UniProt P20701); assay: Immunocytochemical staining of PBMC and THP-1 with anti-integrin (CD11a) antibody with or without albumin peptides; type: binding; conditions: mononuclear blood cells
T1 construct: endogenous in cells; host or cells: human PBMC (healthy controls, cancer patients) and THP-1 monocytic cell line (ATCC)
Procedure: Cytospin preparations of mononuclear blood cells from healthy controls, cancer patients and a monocytic cell line, THP-1, were prepared (as described under materials and methods), dried and stored at −70° C. In the immunocytological staining, unspecific staining was blocked by incubation with 10% human AB serum. Some of the slides were preincubated for 60 minutes with albumin peptides at a concentration of 40 μg/ml, added to this 10% AB serum, as indicated in the FIG. 8 A-F. The staining procedure was then continued as described in material and methods. The staining intensity of slides stained with and without preincubation with the peptides was recorded semi quantitatively using a standard light microscope.
PBMC were separated as described above. Cultured THP-1 cells (obtained from the American Type Culture Collection through LGL Nordic AB, Sweden) were carefully washed and suspended in RPMI1640. PBMC and THP-1 were immediately spun down on pre-cleaned microscope slides in a Shandon Cytospin (Shandon Scientific Ltd, UK) at 1000 RPM for 7 min at 2.5 or 5×10^4 cells per slide. The slides were left to dry at room temperature over night, after which they were wrapped in parafilm and stored at −70° C. Immediately before use, the cytospins were thawed and fixed with acetone for 5 min at room temperature. The cytospins were first blocked with 10% normal human AB-serum with and without albumin peptides (40 ␣g/ml) for 1 h before staining. Primary antibody, consisting of a monoclonal mouse anti-human CD11a (clone HI111, BD Biosciences) diluted in Tris buffered saline (TBS, pH 7.6) at 5 μg/ml (THP-1) or 1 µg/ml (PBMC), was added. The slides were incubated for 30 min and then washed in TBS followed by Envision-Alkaline Phosphatase (Dako Norden A/S, Denmark) for 30 min. After additional washing in TBS, the slides were incubated in alkaline phoshatase substrate consisting of Fast Red TR salt (Sigma), naphtol AS-MX (Sigma) and 5 mM levamisol (Sigma) to block endogenous alkaline phosphatase activity, for 20 min followed by washing in TBS. They were then counterstained in Mayer's haematoxylin for 1 minute and mounted in Glycergel (Dako Norden NS). Monoclonal mouse IgG1 against an irrelevant antigen (Aspergillus niger glukosoxidase, Dako Norden NS) was used as a negative control. All incubations were performed at room temperature in a moist chamber.
FIG. 24. Inhibition of the binding of anti-LFA-1, mab HI111, to mononuclear blood cells by 3028 peptide and fragments 3325 and 3218. A standard immunohistochemical staining procedure using acetone fixation, 10% human AB-serum for blocking, incubation with HI 111 and a secondary antibody (Ultravision, an alkaline phosphate conjugated polymer attached to Fab-fragments of goat anti-mouse Ig), followed by development with Fast Red. The slides were then mounted in Glycergel. Preincubation with peptides added to the AB serum was as follows: A. No peptide added, B. peptide 3028, C. The C-terminal part (3218), and D. The N-terminal part (3325).

PBMC [2] = assay: IL-2 induced proliferation of PBMC in the presence of affinity purified rabbit anti-3028; type: cell-based, human; conditions: small amount of peptide 3028 having no inhibitory activity per se
Procedure: Serum containing culture medium (100 ul/well) was pre-incubated with 20 ug/ml of rabbit antibodies for 30 min at room temperature before the addition of 100 ul PBMC suspension to the culture wells.

PBMC [3] = assay: Human ex vivo model: IL-2 induced proliferation of PBMC in the presence of albumin peptides

T1 sequence (P20701 26-1170): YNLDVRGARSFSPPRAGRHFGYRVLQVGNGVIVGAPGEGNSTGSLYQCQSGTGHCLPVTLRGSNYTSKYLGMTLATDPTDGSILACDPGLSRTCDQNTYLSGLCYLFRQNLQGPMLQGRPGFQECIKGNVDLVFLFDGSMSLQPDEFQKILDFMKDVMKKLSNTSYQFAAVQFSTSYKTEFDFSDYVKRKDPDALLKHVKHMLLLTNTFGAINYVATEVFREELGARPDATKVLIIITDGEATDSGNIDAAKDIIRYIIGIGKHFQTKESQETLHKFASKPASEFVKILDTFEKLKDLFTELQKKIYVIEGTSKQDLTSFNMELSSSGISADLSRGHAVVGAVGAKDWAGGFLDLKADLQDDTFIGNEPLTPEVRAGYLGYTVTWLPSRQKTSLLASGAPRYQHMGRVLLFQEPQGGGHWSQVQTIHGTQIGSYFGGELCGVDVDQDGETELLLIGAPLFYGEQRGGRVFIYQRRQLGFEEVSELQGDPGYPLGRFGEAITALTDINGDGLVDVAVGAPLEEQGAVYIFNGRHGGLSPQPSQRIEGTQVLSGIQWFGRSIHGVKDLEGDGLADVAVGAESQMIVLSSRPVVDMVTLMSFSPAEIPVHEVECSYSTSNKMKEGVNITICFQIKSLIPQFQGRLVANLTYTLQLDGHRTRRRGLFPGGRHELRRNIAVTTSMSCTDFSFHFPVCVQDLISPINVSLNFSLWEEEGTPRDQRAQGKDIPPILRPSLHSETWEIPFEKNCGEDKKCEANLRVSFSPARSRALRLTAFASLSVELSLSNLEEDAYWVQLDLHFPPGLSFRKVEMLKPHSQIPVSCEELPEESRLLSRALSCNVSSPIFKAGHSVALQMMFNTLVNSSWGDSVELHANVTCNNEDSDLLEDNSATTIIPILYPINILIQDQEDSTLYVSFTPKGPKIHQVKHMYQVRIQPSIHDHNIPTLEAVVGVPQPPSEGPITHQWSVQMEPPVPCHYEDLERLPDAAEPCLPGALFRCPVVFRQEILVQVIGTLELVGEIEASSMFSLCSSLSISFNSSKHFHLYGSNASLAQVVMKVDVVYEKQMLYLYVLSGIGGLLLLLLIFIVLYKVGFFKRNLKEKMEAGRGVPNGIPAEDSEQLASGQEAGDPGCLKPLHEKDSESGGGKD
T1 sequence (P05107 23-769 partner): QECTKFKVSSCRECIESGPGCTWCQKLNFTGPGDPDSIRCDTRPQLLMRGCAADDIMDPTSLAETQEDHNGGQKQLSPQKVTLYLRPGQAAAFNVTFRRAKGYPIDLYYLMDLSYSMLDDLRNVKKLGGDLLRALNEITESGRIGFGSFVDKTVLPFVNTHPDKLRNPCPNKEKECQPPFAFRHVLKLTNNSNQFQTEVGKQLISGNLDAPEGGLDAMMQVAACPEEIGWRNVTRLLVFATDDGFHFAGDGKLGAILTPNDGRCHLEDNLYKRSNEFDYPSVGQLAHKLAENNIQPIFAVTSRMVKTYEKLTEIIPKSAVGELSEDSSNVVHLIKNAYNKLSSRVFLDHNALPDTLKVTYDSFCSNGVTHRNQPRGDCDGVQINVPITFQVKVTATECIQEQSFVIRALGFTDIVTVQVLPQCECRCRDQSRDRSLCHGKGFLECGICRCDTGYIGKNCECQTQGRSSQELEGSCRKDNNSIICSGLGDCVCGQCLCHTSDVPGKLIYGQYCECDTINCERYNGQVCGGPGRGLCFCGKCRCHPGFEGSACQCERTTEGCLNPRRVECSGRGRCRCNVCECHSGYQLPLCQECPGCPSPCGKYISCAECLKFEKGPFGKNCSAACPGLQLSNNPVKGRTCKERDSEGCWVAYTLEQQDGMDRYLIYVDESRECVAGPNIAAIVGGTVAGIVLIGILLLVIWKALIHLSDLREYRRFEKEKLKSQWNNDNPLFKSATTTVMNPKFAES

## VFDEFKPLVEEPQNLIK [peptide 3028]
[1]
  effect on binding of the LFA-1 antibody (HI 111) to LFA-1: Both inhibition (FIG. 24) and enhancement of the binding
PBMC [2]
  effect on the stimulatory effect of anti-3028 antibodies: neutralized
PBMC [3]; cancer patient PBMCs
  effect on IL-2 induced proliferation: inhibitory activity
PBMC [3]; human ex vivo model, PBMCs from healthy controls, peptides 10 μg/ml
  effect on IL-2 induced proliferation: regularly inhibits IL-2 induced proliferation
